Assay results taken from patent US9686990B2, “Spiroindolinepiperidine derivatives” (priority 2002, dated 2017).

Legend:
Assay type in all cases: in vivo
[1] = tested on: Heliothis virescens (Tobacco Budworm); test: Heliothis virescens egg/larva test on artificial diet; conditions: 96 h, read-out: control of Heliothis virescens
[2] = tested on: Plutella xylostella (Diamond Back Moth); test: Plutella xylostella larva test on artificial diet; conditions: 120 h, 18.2 ppm by pipetting on artificial diet, L2 larvae, 5 days incubation, larval mortality, antifeedant, growth regulation
Description: (§1) Test against were performed as follows:
24-well microtiter plate (MTP) with artificial diet was treated with test solutions at an application rate of 18.2 ppm by pipetting. After drying, the MTP's were infested with larvae (L2) (10-15 per well). After an incubation period of 5 days, samples were checked for larval mortality, antifeedant and growth regulation.

[3] = tested on: Spodoptera littoralis (Egyptian Cotton Leafworm); test: Spodoptera littoralis cotton leaf disc spray test; conditions: foliar, 72 h, read-out: control of Spodoptera littoralis
Description: as §1
Spodoptera littoralis (Egyptian Cotton Leafworm)

[4] = tested on: Aedes aegypti (Yellow Fever Mosquito); test: whole plant or invertebrate; conditions: 48 h, L2 larvae with nutrition mixture, 2 days, mortality and growth inhibition
Description: as §1
Bean leaf discs on agar in 24-well microtiter plates wer sprayed with test solutions at an application rate of 200 ppm. After drying, the leaf discs are infested with mite populations of mixed ages. 8 days later, discs are checked for egg mortality, larval mortality, and adult mortality. […] Aedes aegypti (Yellow Fever Mosquito): 10-15 Aedes larvae (L2) together with a nutrition mixture are placed in 96-well microtiter plates. Test solutions at an application rate of 2 ppm are pipetted into the wells. 2 days later, insects were checked for mortality and growth inhibition.

| Compound | pest or weed control at 200 ppm [1] [%] | pest or weed control at 18.2 ppm [2] [%] | pest or weed control at 200 ppm [3] [%] | pest or weed control at 2 ppm [4] [%] |
| --- | --- | --- | --- | --- |
| O=C(c1ccnc(Cl)c1)N1CC2(CCN(C/C=C/c3ccccc3)CC2)c2ccccc21 [Compound I-1, 1-(2-Chloropyridin-4-yl)carbonyl-1′-[trans-3-phenylallyl]spiro[indoline-3,4′-piperidine]] | ≥ 80 | ≥ 80 | – | – |
| N#Cc1ccc2c(c1)C1(CCN(C/C=C/c3ccc(Cl)cc3)CC1)CN2C(=O)c1ccnc(Cl)c1 [Compound I-212, 5-Cyano-1-(2-chloropyridin-4-yl)carbonyl-1′-[trans-3-(4-chlorophenyl)allyl]spiro[indoline-3,4′-piperidine]] | ≥ 80 | ≥ 80 | ≥ 80 | ≥ 80 |
| CC(=O)N1CC2(CCN(C/C=C/c3ccc(Cl)cc3)CC2)c2cc(Cl)ccc21 [Compound V-22, 1-Acetyl-5-chloro-1′-[trans-3-(4-chlorophenyl)allyl]spiro[indoline-3,4′-piperidine]] | ≥ 80 | ≥ 80 | ≥ 80 | ≥ 80 |
| O=C(c1ccncc1)N1CC2(CCN(C/C=C/c3ccc(Cl)cc3)CC2)c2cc(Cl)ccc21 [VI-22, 1-(Pyridin-4-yl)-carbonyl-5-chloro-1′-[trans-3-(4-chlorophenyl)allyl]spiro[indoline-3,4′-piperidine]] | ≥ 80 | ≥ 80 | ≥ 80 | ≥ 80 |
| Clc1ccc(/C=C/CN2CCC3(CC2)CN(c2cnccn2)c2ccc(Cl)cc23)cc1 [XIV-22, 1-(2-Pyrazinyl)-5-chloro-1′-[trans-3-(4-chlorophenyl)allyl]spiro[indoline-3,4′-piperidine]] | ≥ 80 | ≥ 80 | ≥ 80 | ≥ 80 |
| Cc1ccc2c(c1)C1(CCN(C/C=C/c3ccc(Cl)cc3)CC1)CN2C(=O)c1ccc(C#N)cc1 [XIX-202, 1-(4-cyanobenzoyl)-5-methyl-1′-[trans-3-(4-chlorophenyl)allyl]spiro[indoline-3,4′-piperidine]] | ≥ 80 | – | ≥ 80 | – |
| O=C(c1ccnc(Cl)c1)N1CC2(CCN(C/C=C/c3ccc(C(F)(F)F)cc3)CC2)c2cc(Cl)ccc21 [XXX-51, 1-(2-chloropyridin-4-yl)carbonyl-5-chloro-1′-[(E)-3-(4-trifluoromethyl-phenyl)allyl]spiro[indolin-3,4′-piperidine]] | – | ≥ 80 | ≥ 80 | ≥ 80 |
| CSc1ccc(/C=C\CN2CCC3(CC2)CN(C(=O)c2ccnc(Cl)c2)c2ccc(Cl)cc23)cc1 [XXX-72, 1-(2-chloropyridin-4-yl)carbonyl-5-chloro-1′-[(Z)-3-(4-methylthiophenyl)allyl]spiro[indolin-3,4′-piperidine]] | ≥ 80 | – | – | – |
| O=C(c1ccnc(Cl)c1)N1CC2(CCN(C/C=C(\F)c3ccc(Cl)cc3)CC2)c2cc(Cl)ccc21 [XXX-90, 1-(2-chloropyridin-4-yl)carbonyl-5-chloro-1′-[(Z)-3-(4-chlorophenyl)-3-fluoro-allyl]spiro[indolin-3,4′-piperidine]] | ≥ 80 | ≥ 80 | – | ≥ 80 |
| NN1CC2(CCN(C/C=C/c3ccc(Cl)cc3)CC2)c2cc(F)ccc21 [XXX-94] | ≥ 80 | – | – | ≥ 80 |
| C/C(=N/N1CC2(CCN(C/C=C/c3ccc(Cl)cc3)CC2)c2cc(Cl)ccc21)N(C)C [XXX-102, N′-[5-chloro-1′-[trans-3-(4-chlorophenyl)allyl]spiro[indoline-3,4′-piperidine]-1-yl]-N,N-dimethylacetamidine] | – | – | – | ≥ 80 |
| COCCNC(=O)N1CC2(CCN(C/C=C/c3ccc(Cl)cc3)CC2)c2cc(F)ccc21 [XXX-105] | ≥ 80 | ≥ 80 | ≥ 80 | ≥ 80 |
| O=C(c1ccnc(Cl)c1)N1CC2(CCN(C/C(F)=C/c3ccc(Cl)cc3)CC2)c2cc(Cl)ccc21 [XXX-113, 1-(2-chloropyridin-4-yl)carbonyl-5-chloro-1′-[(Z)-3-(4-chlorophenyl)-2-fluoro-allyl]spiro[indolin-3,4′-piperidine]] | ≥ 80 | ≥ 80 | ≥ 80 | ≥ 80 |
| O=C(c1ccnc(Cl)c1)N1CC2(CCN(C/C=C(\Cl)c3ccc(Cl)cc3)CC2)c2cc(Cl)ccc21 [XXX-115, 1-(2-chloropyridin-4-yl)carbonyl-5-chloro-1′-[(Z)-3-(4-chlorophenyl)-3-chloro-allyl]spiro[indolin-3,4′-piperidine]] | ≥ 80 | – | – | – |
